Like-named read-outs stand apart in the source and are kept apart here.
Assays:
[1] = test system: bacteria; conditions: for efficacy after home launderings: after 25 home launderings (FIG. 3); for efficacy (AATCC TM100): salts only, zero home launderings, liquor pH not lowered (FIG. 1)
[2] = test system: Kp; conditions: Polyester Fabric, Mathis JFO Exhaust
Method: High dye load samples are the most difficult to process using exhaustion dye techniques. A series of tests were run using PET (polyester) and polyspandex fabrics. In this test series the materials were tested in two different laboratories using container-style lab exhaust equipment. Alongside the treated samples, untreated fabrics were run for comparison.
The fabrics were tested as-made and after 25 home launderings (25 HL). Each home laundering was performed in a commercial front-load washing machine per AATCC Monograph M6 using Tide HE detergent.
Trials have been performed in a small Thiele exhaustion pilot unit, as well as in Mathis JFO pilot scale equipment, both of which use jets to forcibly impregnate the textile with the exhaust liquor.
Reductive Clears—Method A is 1% Na Hydrosulfite whereas Method B is 0.3% NaOH, 0.4% Na Hydrosulfite. “owg” is “on weight of goods”.

Row | SMILES | efficacy after home launderings [1] | efficacy (AATCC TM100) [1] | other results
1 | O=C(O)CC(O)(CC(=O)O)C(=O)O [Citric acid, citric acid] | not able to maintain efficacy | – | –
2 | O=C([O-])c1ccccc1.[Na+] [sodium benzoate] | – | relatively low levels of efficacy | Percent reduction ([2]; 0 HL, sodium benzoate acidified with citric acid to pH<3.6, run as Example 4): 99.50%; Percent reduction ([2]; 25 HL, sodium benzoate acidified with citric acid to pH<3.6): 99.50%
3 | C/C=C/C=C/C(=O)[O-].[K+] [potassium sorbate, reference compound] | – | relatively low levels of efficacy | –
4 | C/C=C/C=C/C(=O)O [sorbic acid] | able to maintain efficacy following multiple washing cycles | – | efficacy after a reductive clear ([1]; exhausted on polyester fabric, 0 HL (FIG. 4)): demonstrate efficacy after the reductive clear
5 | O=C([O-])CC(O)(CC(=O)[O-])C(=O)[O-].[Na+].[Na+].[Na+] [trisodium citrate, reference compound] | – | relatively low levels of efficacy | –

Reference: US12227895B2, “Odor reduction and bacterial control on a textile material” (Microban Products Company, priority 2019, dated 2025)
